Test results from PubChem BioAssay AID1963425 (Molecular Pharmacology Branch, DTP, NCI, 2024).

Test system: 323965-272-R-J2-PDC complex spheroid growth, % test/control
Assay: Anticancer human tumor 323965-272-R-J2-PDC patient-derived pancreatic carcinoma cell line growth inhibition [Asc]
Conditions: for IC50: curve of first compound; for viability, T/C: stronger effect = lower value
Outline: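 Complex spheroids combining tumor cells with HUVEC endothelial cells and human MSCs, at 37 degrees C, 5% CO2; agents tested alone or combined, half-log dilutions from at or near clinical Cmax, or 10 microM if Cmax unknown.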
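Also: compound exposure lasted 7 days starting three days after spheroid seeding.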
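For viability, T/C in this document: 100% = DMSO vehicle control wells with viability set relative to vehicle.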

Q: For `Cn1ncnc1[C@H]1c2n[nH]c(=O)c3cc(F)cc(c23)N[C@@H]1c1ccc(F)cc1` + CCN1C(C(=O)NC23CCC(C(=O)O)(CC2)CC3)C(c2cccc(Cl)c2F)C2(C(=O)Nc3cc(Cl)ccc32)C12CCCCC2, which IC50 (second compound 0.00949 µM) is on record?
A: > 100 nM

Q: And the IC50 (second compound 0.03 µM)?
A: > 100 nM

Q: What about the IC50 (second compound 0.0949 µM) of the same compound?
A: > 100 nM

Q: What about the IC50 (second compound 0.3 µM) of the same compound?
A: > 100 nM

Q: And the IC50 (second compound 0.949 µM)?
A: > 100 nM

Q: What about the IC50 (second compound 3 µM) of the same compound?
A: > 100 nM

Q: What about the viability, T/C (second compound 0.00949 µM, first compound 0.000316 µM) of the same compound?
A: 114%

Q: What about the viability, T/C (second compound 0.00949 µM, first compound 0.001 µM) of the same compound?
A: 104%

Q: And the viability, T/C (second compound 0.00949 µM, first compound 0.00316 µM)?
A: 108%

Q: What about the viability, T/C (second compound 0.00949 µM, first compound 0.01 µM) of the same compound?
A: 113%

Q: And the viability, T/C (second compound 0.00949 µM, first compound 0.0316 µM)?
A: 112%

Q: What about the viability, T/C (second compound 0.00949 µM, first compound 0.1 µM) of the same compound?
A: 98.3%

Q: And the viability, T/C (second compound 0.03 µM, first compound 0.000316 µM)?
A: 124%

Q: What about the viability, T/C (second compound 0.03 µM, first compound 0.001 µM) of the same compound?
A: 116%

Q: What about the viability, T/C (second compound 0.03 µM, first compound 0.00316 µM) of the same compound?
A: 122%

Q: And the viability, T/C (second compound 0.03 µM, first compound 0.01 µM)?
A: 105%

Q: What about the viability, T/C (second compound 0.03 µM, first compound 0.0316 µM) of the same compound?
A: 116%

Q: What about the viability, T/C (second compound 0.03 µM, first compound 0.1 µM) of the same compound?
A: 108%

Q: What about the viability, T/C (second compound 0.0949 µM, first compound 0.000316 µM) of the same compound?
A: 123%

Q: What about the viability, T/C (second compound 0.0949 µM, first compound 0.001 µM) of the same compound?
A: 116%

Q: And the viability, T/C (second compound 0.0949 µM, first compound 0.00316 µM)?
A: 104%

Q: And the viability, T/C (second compound 0.0949 µM, first compound 0.01 µM)?
A: 96.6%

Q: And the viability, T/C (second compound 0.0949 µM, first compound 0.0316 µM)?
A: 103%

Q: And the viability, T/C (second compound 0.0949 µM, first compound 0.1 µM)?
A: 102%

Q: And the viability, T/C (second compound 0.3 µM, first compound 0.000316 µM)?
A: 115%

Q: What about the viability, T/C (second compound 0.3 µM, first compound 0.001 µM) of the same compound?
A: 118%

Q: And the viability, T/C (second compound 0.3 µM, first compound 0.00316 µM)?
A: 125%

Q: What about the viability, T/C (second compound 0.3 µM, first compound 0.01 µM) of the same compound?
A: 108%

Q: What about the viability, T/C (second compound 0.3 µM, first compound 0.0316 µM) of the same compound?
A: 114%

Q: And the viability, T/C (second compound 0.3 µM, first compound 0.1 µM)?
A: 77.7%

Q: And the viability, T/C (second compound 0.949 µM, first compound 0.000316 µM)?
A: 118%

Q: What about the viability, T/C (second compound 0.949 µM, first compound 0.001 µM) of the same compound?
A: 114%

Q: And the viability, T/C (second compound 0.949 µM, first compound 0.00316 µM)?
A: 110%

Q: What about the viability, T/C (second compound 0.949 µM, first compound 0.01 µM) of the same compound?
A: 113%

Q: And the viability, T/C (second compound 0.949 µM, first compound 0.0316 µM)?
A: 117%

Q: And the viability, T/C (second compound 0.949 µM, first compound 0.1 µM)?
A: 93.1%

Q: What about the viability, T/C (second compound 3 µM, first compound 0.000316 µM) of the same compound?
A: 118%

Q: And the viability, T/C (second compound 3 µM, first compound 0.001 µM)?
A: 109%

Q: And the viability, T/C (second compound 3 µM, first compound 0.00316 µM)?
A: 96%

Q: What about the viability, T/C (second compound 3 µM, first compound 0.01 µM) of the same compound?
A: 105%

Q: What about the viability, T/C (second compound 3 µM, first compound 0.0316 µM) of the same compound?
A: 96.9%

Q: What about the viability, T/C (second compound 3 µM, first compound 0.1 µM) of the same compound?
A: 85.8%
